Bridge positions count the residues as written; N and C are the ends. Peptide text beside a SMILES is read from it. I, II: the chains in the order shown.
Assays:
[1] = target: T1, insulin receptor on the capillary endothelial cell (Bos taurus, UniProt F1MV64); test: Competitive inhibition of 125I-insulin binding on bovine brain microvessel endothelial cell monolayers
T1 construct: endogenous in cells; host or cells: primary bovine brain microvessel endothelial cell monolayers
Protocol: In accordance with the description by Ronald T. Borchart et al. of the United States in "Characteristics of the Large Neutral Amino Acid Transport System of Bovine Brain Microvessel Endothelial Cell Monolayers" [Journal of Neurochemistry, Vol. 47, pp. 484-488 (1986)], bovine brain microvessel endothelial cells were separated in a monolayer, whose affinity for the receptor on the endothelial cell was determined.

[2] = compared with natural insulin; cited from earlier work

T1 sequence (F1MV64 28-1382): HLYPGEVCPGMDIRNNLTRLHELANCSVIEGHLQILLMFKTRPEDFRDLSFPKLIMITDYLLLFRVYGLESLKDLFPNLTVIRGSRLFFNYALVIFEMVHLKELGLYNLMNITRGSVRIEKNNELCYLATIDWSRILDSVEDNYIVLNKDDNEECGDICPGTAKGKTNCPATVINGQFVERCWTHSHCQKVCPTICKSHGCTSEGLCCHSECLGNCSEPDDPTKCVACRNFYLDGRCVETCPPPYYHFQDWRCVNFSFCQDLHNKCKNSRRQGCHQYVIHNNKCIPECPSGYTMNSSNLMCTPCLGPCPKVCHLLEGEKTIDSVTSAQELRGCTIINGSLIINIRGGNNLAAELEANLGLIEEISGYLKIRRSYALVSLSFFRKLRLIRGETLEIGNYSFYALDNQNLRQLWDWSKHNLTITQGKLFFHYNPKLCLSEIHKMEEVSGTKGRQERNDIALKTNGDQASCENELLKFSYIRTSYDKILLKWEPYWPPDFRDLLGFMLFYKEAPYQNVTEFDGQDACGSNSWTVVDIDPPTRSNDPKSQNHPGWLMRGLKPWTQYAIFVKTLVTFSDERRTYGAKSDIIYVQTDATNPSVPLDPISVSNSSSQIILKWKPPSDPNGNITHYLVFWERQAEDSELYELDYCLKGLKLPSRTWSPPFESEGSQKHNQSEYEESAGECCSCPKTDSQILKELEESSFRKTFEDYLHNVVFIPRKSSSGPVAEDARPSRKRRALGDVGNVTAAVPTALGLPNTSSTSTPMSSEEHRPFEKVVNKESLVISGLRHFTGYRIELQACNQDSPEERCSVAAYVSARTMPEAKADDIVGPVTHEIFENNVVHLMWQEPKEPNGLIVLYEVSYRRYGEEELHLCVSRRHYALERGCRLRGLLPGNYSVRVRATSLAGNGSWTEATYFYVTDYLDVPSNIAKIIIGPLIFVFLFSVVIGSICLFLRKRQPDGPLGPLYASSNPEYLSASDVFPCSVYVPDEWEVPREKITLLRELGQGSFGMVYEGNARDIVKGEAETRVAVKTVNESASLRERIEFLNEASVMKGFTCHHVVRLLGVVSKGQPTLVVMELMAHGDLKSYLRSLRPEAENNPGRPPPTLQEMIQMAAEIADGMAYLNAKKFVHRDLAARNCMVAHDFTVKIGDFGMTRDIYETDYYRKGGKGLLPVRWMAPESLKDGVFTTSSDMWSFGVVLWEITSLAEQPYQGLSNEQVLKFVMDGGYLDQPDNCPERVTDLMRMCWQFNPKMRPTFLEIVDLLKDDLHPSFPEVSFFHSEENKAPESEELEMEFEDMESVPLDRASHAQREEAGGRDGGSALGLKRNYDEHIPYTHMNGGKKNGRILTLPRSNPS

| Compound | 125I-insulin binding ratio (%) after addition of non-labeled compound ([1]; addition concentration 1.0 × 10 μM) [%] | 125I-insulin binding ratio (%) after addition of non-labeled compound ([1]; addition concentration 1.0 × 10^2 μM (first line so printed)) [%] | 125I-insulin binding ratio (%) after addition of non-labeled compound ([1]; addition concentration 1.0 × 10^2 μM (second line so printed)) [%] | Affinity for the insulin receptor on the capillary endothelial cell (in words) ([1]; fragments obtained by solid phase synthesis, Examples 4 and 5) | Affinity for the receptor on the cerebral capillary endothelial cell (in words) ([1]; fragments obtained by trypsin digestion, Examples 1 and 2) | Insulin activity (in words) [2] |
| --- | --- | --- | --- | --- | --- | --- |
| CC[C@H](C)[C@H](NC(=O)CN)C(=O)N[C@H](C(=O)N[C@@H](CCC(=O)O)C(=O)N[C@@H](CCC(N)=O)C(=O)N[C@H]1CSSC[C@@H](C(=O)N[C@@H](CO)C(=O)N[C@@H](CC(C)C)C(=O)N[C@@H](Cc2ccc(O)cc2)C(=O)O)NC(=O)[C@H]([C@@H](C)CC)NC(=O)[C@H](CO)NC(=O)[C@H]([C@@H](C)O)NC(=O)[C@H](CSSC[C@H](NC(=O)[C@H](CC(C)C)NC(=O)[C@H](Cc2c[nH]cn2)NC(=O)[C@H](CCC(N)=O)NC(=O)[C@H](CC(N)=O)NC(=O)[C@@H](NC(=O)[C@@H](N)Cc2ccccc2)C(C)C)C(=O)NCC(=O)N[C@@H](CO)C(=O)N[C@@H](Cc2c[nH]cn2)C(=O)N[C@@H](CC(C)C)C(=O)N[C@H](C(=O)N[C@@H](CCC(=O)O)C(=O)N[C@@H](C)C(=O)N[C@@H](CC(C)C)C(=O)N[C@@H](Cc2ccc(O)cc2)C(=O)O)C(C)C)NC1=O)C(C)C [F001] (I: H-FVNQHLCGSHLVEALY-OH / II: H-GIVEQCCTSICSLY-OH; disulfide I:7-II:7, II:6-II:11) | 93.2 ± 0.4 | 61.6 ± 1.2 | 78.5 ± 3.8 | same affinity as insuline frogments obtained in Example 1 and 2 | showed affinity |  |
| (B25-30) pentapeptide deficient-[Phe^B25 -α-carboxyamide]insulin |  |  |  |  |  | acts as potently as natural insulin |
